For five molecules, IC50 results are on record in article PMC8975978, “Bioassay-guided isolation of cytotoxic constituents from the flowers of Aquilaria sinensis” (Natural Products and Bioprospecting, 2022).

The subject of experiment [1] is human lung squamous cell carcinoma NCI-H520 cells. Briefly: MTS cytotoxicity assay, NCI-H520. The experiment is classed as cell-based. The following applies: read-out: IC50. As to the method: (§1) It had better inhibition against lung cancer cell lines than against other cancer cell lines (Table 1). Thus, the next bioactivity-guided separations were conducted according to the cytotoxicities of the fractions against lung cancer cell lines (A-549, NCI-H520, and SPC-A-1), as well as normal BEAS-2B cells and paclitaxel-resistant lung cancer A549/Taxol cells.
(§2) The cytotoxicity activities were evaluated by MTS assay as previously described.
For orientation: Tetrazolium dyes change colour on reduction, which living cells bring about.

Experiment [2] has as its system paclitaxel-resistant A549 (A549/Taxol) cells. The experiment in a line: MTS cytotoxicity assay, A549/Taxol. The experiment is classed as cell-based, human. To be noted: read-out: IC50. As to the method: as §1, §2
Experiment [3] deals with human lung adenocarcinoma A549 cells. The experiment in a line: MTS cytotoxicity assay, A549. It is filed as cell-based. The following applies: read-out: IC50. As to the method: as §1, §2
In experiment [4] the test system is human lung adenocarcinoma SPC-A-1 cells. The experiment in a line: MTS cytotoxicity assay, SPC-A-1. It is filed as cell-based. To be noted: read-out: IC50. As to the method: as §1, §2
In experiment [5] the test system is human normal bronchial epithelial BEAS-2B cells. The experiment in a line: MTS cytotoxicity assay, normal BEAS-2B. It is filed as cell-based. The following applies: read-out: IC50. Here is the method: as §1, §2
Experiment [6] relates to human colon cancer Caco2 cells. Briefly: MTS cytotoxicity assay, Caco2. The experiment is classed as cell-based. The following applies: Caco-2, Table 1, Caco2.
Experiment [7] has as its system human colon cancer SW-480 cells. The experiment in a line: MTS cytotoxicity assay, SW480. It is filed as cell-based. The following applies: Homo sapiens; Table 1, SW480; read-out: IC50. Here is the method:
as §1, §2

Experiment [8] relates to human ovarian carcinoma SK-OV-3 cells. Briefly: MTS cytotoxicity assay, SK-OV-3. The experiment is classed as cell-based. To be noted: Homo sapiens; Table 1, SK-OV-3; read-out: IC50. Here is the method: as §1, §2
In experiment [9] the test system is human large cell lung carcinoma NCI-H460 cells. The experiment in a line: MTS cytotoxicity assay, NCI-H460. The experiment is classed as cell-based. To be noted: Homo sapiens; Table 1, NCI-H460; read-out: IC50. As to the method:
as §1, §2

Experiment [10] deals with human T-cell leukemia MT4 cells. The experiment in a line: MTS cytotoxicity assay, MT4. The experiment is classed as cell-based. To be noted: Homo sapiens; Table 1, MT4; read-out: IC50. As to the method:
as §1, §2

Experiment [11] has as its system human breast cancer MDA-MB-231 cells. Briefly: MTS cytotoxicity assay, MDA-MB-231. The experiment is classed as cell-based. The following applies: Homo sapiens; Table 1, MDA-MB-231; read-out: IC50. As to the method: as §1, §2
In experiment [12] the test system is human breast cancer MCF-7 cells. Briefly: MTS cytotoxicity assay, MCF-7. The experiment is classed as cell-based. The following applies: Homo sapiens, MCF7; Table 1, MCF-7; read-out: IC50. As to the method:
as §1, §2

Experiment [13] concerns human leukemia HL-60 cells. The experiment in a line: MTS cytotoxicity assay, HL-60. The experiment is classed as cell-based. To be noted: Homo sapiens; Table 1, HL-60; read-out: IC50. As to the method: as §1, §2
The test system of experiment [14] is human small cell lung cancer NCI-H446 cells. The experiment in a line: MTS cytotoxicity assay, NCI-H446. The experiment is classed as cell-based. To be noted: Homo sapiens; Table 1, NCI-H446; read-out: IC50. As to the method:
as §1, §2

Experiment [15] concerns human neuroblastoma SH-SY5Y cells. The experiment in a line: MTS cytotoxicity assay, SH-SY5Y. The following applies: Homo sapiens; Table 1, SH-SY5Y; read-out: IC50. It is filed as cell-based. Here is the method: as §1, §2
Experiment [16] has as its system human hepatoma SMMC-7721 cells. Briefly: MTS cytotoxicity assay, SMMC-7721. It is filed as cell-based. The following applies: Homo sapiens; Table 1, SMMC-7721; read-out: IC50.
The subject of experiment [17] is human cervical cancer HeLa cells. Briefly: MTS cytotoxicity assay, HeLa. To be noted: Homo sapiens; Table 1, HeLa; read-out: IC50. It is filed as cell-based. As to the method: as §1, §2
The test system of experiment [18] is human prostate cancer PC-3 cells. The experiment in a line: MTS cytotoxicity assay, PC-3. The experiment is classed as cell-based. To be noted: Homo sapiens; Table 1, PC-3; read-out: IC50. Here is the method: as §1, §2
For experiment [19], the system named is SK-MEL cells. Set-up: method as in PMID 28754541. The following applies: cited from earlier work.
The test system of experiment [20] is SPC-A-1, NCI-H520, A549 and A549/Taxol cell lines. The experiment in a line: MTS cytotoxicity assay, four tested lung cancer cell lines together. It is filed as cell-based, human. The following applies: four tested cancer cell lines taken together (SPC-A-1, NCI-H520, A549, A549/Taxol). Here is the method:
Thus, the next bioactivity-guided separations were conducted according to the cytotoxicities of the fractions against lung cancer cell lines (A-549, NCI-H520, and SPC-A-1), as well as normal BEAS-2B cells and paclitaxel-resistant lung cancer A549/Taxol cells.
Isolates 1–6 were evaluated for their cytotoxicities against SPC-A-1, NCI-H520, A549, A549/Taxol, and BEAS-2B cell lines (Table 5).
as §2

Setting [21] is: Homo sapiens, Table 5, NCI-H520.
The mark [22] stands for this setting: Homo sapiens, A549/Taxol, Table 5, A549/Taxol.
Setting [23] is: Homo sapiens, SPCA1, Table 5, SPC-A-1.
[24] abbreviates: Homo sapiens, BEAS-2B, Table 5, BEAS-2B normal cells.

In brackets after ≈: the same amount, converted by molar mass. Read-outs that look alike come from different tables or passages of the source.

Broadly, the IC50 is the concentration that gives 50% inhibition. Regarding `COc1ccc(CCc2cc(=O)c3cc(OC)c(O)cc3o2)cc1` [Compound 6, 7-hydroxy-6-methoxy-2-[2-(4-methoxyphenyl)ethyl]-4H-1-benzopyran-4-one], the IC50 in experiment [1] (setting [21]) is 1.84 ± 0.16 µM; in experiment [2] (setting [22]) it was 0.91 ± 0.01 µM; in [3] (Homo sapiens, Table 5, A549) it was 1.52 ± 0.06 µM; in experiment [4] (setting [23]), 1.13 ± 0.03 µM; in [5] (setting [24]) it was over 40 µM.
`CC(=O)O[C@H]1C(=O)[C@@]2(C)[C@H]([C@H](OC(=O)c3ccccc3)[C@]3(O)C[C@H](OC(=O)[C@H](O)[C@@H](NC(=O)c4ccccc4)c4ccccc4)C(C)=C1C3(C)C)[C@]1(OC(C)=O)CO[C@@H]1C[C@@H]2O` [Paclitaxel]: the IC50 in experiment [6] is 0.02 ± 0.02 mg/L (≈ 23.4 nM); in experiment [7], under 0.007 mg/L; in [8] it was under 0.007 mg/L; in [9] it was under 0.007 mg/L; in experiment [10] it was under 0.008 mg/L; in [11] it was under 0.007 mg/L. In addition, the IC50 in experiment [12] is under 0.007 mg/L; in experiment [1] (Homo sapiens, Table 1, NCI-H520), under 0.007 mg/L; in experiment [1] (setting [21]) it was under 0.008 µM; in experiment [13], under 0.007 mg/L; in experiment [2] (Homo sapiens, A549/Taxol, Table 2, A549/Taxol) it was 0.54 ± 0.09 mg/L; in experiment [2] (Homo sapiens, A549/Taxol, Table 3, A549/Taxol), 1.45 ± 0.12 mg/L. Moreover, the IC50 was 0.96 ± 0.05 mg/L in experiment [2] (Homo sapiens, A549/Taxol, Table 4, A549/Taxol); 1.8 ± 0.13 µM in [2] (setting [22]); under 0.007 mg/L in experiment [14]; 0.008 ± 0.001 mg/L (≈ 9.37 nM) in [15]; under 0.007 mg/L in experiment [3] (Homo sapiens, Table 1, A549); under 0.008 µM in experiment [3] (Homo sapiens, Table 5, A549). Further, the IC50 in experiment [16] was 0.15 ± 0.02 mg/L (≈ 176 nM); in experiment [4] (Homo sapiens, SPCA1, Table 1, SPC-A-1), under 0.007 mg/L; in experiment [4] (setting [23]) it was under 0.008 µM; in experiment [17], under 0.007 mg/L; in experiment [5] (Homo sapiens, BEAS-2B, Table 1, BEAS-2B normal cells), 3.66 ± 0.3 mg/L; in [5] (Homo sapiens, BEAS-2B, Table 2, BEAS-2B normal cells), 1.85 ± 0.19 mg/L. In addition, the IC50 is 2.04 ± 0.11 mg/L in experiment [5] (Homo sapiens, BEAS-2B, Table 3, BEAS-2B normal cells); 1.94 ± 0.11 mg/L in experiment [5] (Homo sapiens, BEAS-2B, Table 4, BEAS-2B normal cells); over 5 µM in experiment [5] (setting [24]); under 0.007 mg/L in experiment [18].
As for aquilaside B, in experiment [19], the IC50 was 17 µM.
For the molecule aquilaside C, in experiment [19], the IC50 is 12 µM.
For the molecule cucurbitacin B [Compound 4], the IC50 in experiment [1] (Table 5, NCI-H520) was 0.002 µM; in [2] (Table 5, A549/Taxol), 0.007 ± 0.001 µM; in experiment [20], at most 0.03 µM; in [3] (Table 5, A549) it was 0.03 µM; in experiment [4] (Table 5, SPC-A-1) it was 0.016 µM; in experiment [5] (Table 5, BEAS-2B normal cells), 14.4 ± 1.36 µM.
